These are literature values, as cited in patent US20040062802A1, “Maximizing effectiveness of substances used to improve health and well being” (priority 1998, published 2004).

Read-outs that look alike come from different tables or passages of the source.

The test system of one data set is mouse model. The following applies: drug received at the beginning of the sleep phase; cited from earlier work.
The next data set relates to bone marrow cells. To be noted: mouse, in vivo; cited from earlier work.
The next data set deals with HIV. To be noted: 200 mg AZT orally every 4 hours for 7 day periods alternating with ddC 0.03 mg/kg orally every 4 hours for 7 day periods; cited from earlier work.
For data set [1] the following is noted: cited from earlier work.
The conditions of data set [2]: mean, N = 24, cited from earlier work; for AUC0-24 h: 1 mg daily 10 days then 2 mg daily 5 days.
In data set [3] the test system is male patients with clinical of BPH. The following applies: cited from earlier work; for I-PSS Endpoint / Qmax Endpoint: 24 weeks; for I-PSS Endpoint / Qmax Endpoint / I-PSS Baseline / Qmax Baseline: mean; for I-PSS Baseline / Qmax Baseline: after 2 week placebo run-in.
For data set [4] the following is noted: cited from earlier work. This is another data set of the same source.
Setting [5] is: 800 mg group versus 400 mg group.

As for `N.N.O=C([O-])C1(C(=O)[O-])CCC1.[Pt+2]` [carboplatin, Carboplatin], in the data set on mouse model, the marrow toxicity entry was “lowest marrow toxicity” and the mean survival time entry is on record as “longest mean survival time”.
`Cc1cn([C@H]2C[C@H](N=[N+]=[N-])[C@@H](CO)O2)c(=O)[nH]c1=O` [AZT]: the “toxicity (peripheral blood parameters, proportion of bone marrow cells arrested at the S-phase gate)” value in the data set with bone marrow cells was “significantly less toxic”. In addition, the “outcome of alternating regimen” value in the data set on HIV is recorded as “promising treatment regimen”. Besides, in data set [1] (400 mg group versus 800 mg group), the “duration of the effect of AZT” value is given as “significantly longer”. Moreover, in data set [1] (setting [5]), the “AZT withdrawn or dose reduced” value is “reduced more frequently” and the adverse reaction result was “more frequently observed”.
In general, Cmax refers to the maximum level reached in the sampled fluid or tissue. A word on the Tmax: it is the time at which the peak concentration occurs. For the compound `COc1cc2nc(N3CCN(C(=O)C4COc5ccccc5O4)CC3)nc(N)c2cc1OC` (stereo not shown) [Doxazosin], in data set [2] (evening dosing (8 pm)), the AUC0-24 h was 253.66 ng·h/mL, the Cmax was 15.76 ng/mL, the T1/2 is recorded as 18.77 h and the Tmax is given as 5.60 h. Moreover, in data set [2] (morning dosing (8 am)), the AUC0-24 h is 227.90 ng·h/mL, the maximum concentration (Cmax) was 16.98 ng/mL, the T1/2 was 19.52 h and the Tmax was 3.46 h. For the same compound, the “clinical efficacy versus placebo” value in data set [3] (at 6 weeks and endpoint) is on record as “significantly differed from placebo”. Besides, in data set [3] (evening (8 pm) dosing), the “I-PSS Endpoint” value is on record as 11.7, the “Qmax Endpoint” value is 12.30 mL/s, the “I-PSS Mean Change” value is −6.7 and the “I-PSS Responders” value was 62.6. For the same compound, in data set [3] (evening (8 pm) dosing), the “Qmax Mean Change” value was 1.94 mL/s and the “Qmax Responders” value is 28.4. Further, in data set [3] (evening (8 pm) group), the “I-PSS Baseline” value is 18.2 and the “Qmax Baseline” value was 10.49 mL/s. In data set [3] (morning (8 am) dosing), the “I-PSS Endpoint” value is listed as 11.0, the “Qmax Endpoint” value was 11.84 mL/s, the “I-PSS Mean Change” value is listed as −6.9 and the “I-PSS Responders” value is listed as 57.4. Further, in data set [3] (morning (8 am) dosing), the “Qmax Mean Change” value is 1.51 mL/s and the “Qmax Responders” value is on record as 29.7. In data set [3] (morning (8 am) group), the “I-PSS Baseline” value is 18.5 and the “Qmax Baseline” value is 10.17 mL/s.
On to `COC(=O)C(c1ccccc1)C1CCCCN1` (stereo not shown) [methylphenidate], for which the plasma profile entry in data set [4] (ADD, conventional 10 mg at 7 am and 10 mg at 12 pm, FIG. I solid line) is “high dosages of the drug would be present in the body throughout the afternoon and early evening”; in data set [4] (narcolepsy, conventional 20 mg at 7 am, 10 mg at 12 pm and 10 mg at 5 pm, FIG. II solid line), “lower dosages of the drug are present in the patient during the morning hours”.
